Assays:
[1] = tested on: Phosphatidylinositol 4,5-bisphosphate 3-kinase catalytic subunit alpha isoform (Homo sapiens), P42336 [E542K]; conditions: Compound concentration 1000.0 nM
[2] = target: L-type Ca2+ channel (dihydropyridine site) (Rattus norvegicus, UniProt P22002+P27732+Q02485); assay: Ca2+ channel (L, dihydropyridine site) Eurofins-Cerep binding assay; assay type: protein assay; parameters: incubation time 90 min, incubation temperature RT, ligand concentration 0.1 nM; conditions: rat cerebral cortex, probe [3H]nitrendipine (0.1 nM), compound concentration 10 uM, read-out: % Inhibition of Control Specific Binding (Mean n=2)
[3] = target: Serine/threonine-protein kinase D3 (Homo sapiens) (UniProt O94806); conditions: Compound concentration 1000.0 nM
[4] = tested on: Phosphatidylinositol 4,5-bisphosphate 3-kinase catalytic subunit alpha isoform (Homo sapiens), P42336 [C420R]; conditions: Compound concentration 1000.0 nM
[5] = target: Sigma intracellular receptor 2 (Homo sapiens, UniProt Q5BJF2); assay: GPCRScan assay: inhibition of Sigma 2; parameters: radioligand conc. used [nm] 5.0, parental cells HEKT
[6] = target: Kappa-type opioid receptor (Homo sapiens) (UniProt P41145); assay: kappa (h) (KOP) Eurofins-Cerep binding assay; parameters: ligand concentration 0.5 nM; conditions: filed as agonist, Compound concentration 10.0 uM
[7] = target: Mitogen-activated protein kinase 15 (Homo sapiens) (UniProt Q8TD08); conditions: Compound concentration 1000.0 nM
[8] = target: Serine/threonine-protein kinase Nek1 (Homo sapiens) (UniProt Q96PY6); conditions: Compound concentration 1000.0 nM
[9] = target: Calcium/calmodulin-dependent protein kinase type II subunit delta (Homo sapiens) (UniProt Q13557); conditions: Compound concentration 1000.0 nM
[10] = target: Muscarinic acetylcholine receptor M3 (Homo sapiens) (UniProt P20309); assay: M3 (h) Eurofins-Cerep binding assay; parameters: ligand concentration 0.2 nM; conditions: filed as antagonist, Compound concentration 10.0 uM
[11] = target: Ribosomal protein S6 kinase alpha-5 (Homo sapiens) (UniProt O75582); conditions: Compound concentration 1000.0 nM
[12] = target: Serine/threonine-protein kinase PAK 2 (Homo sapiens) (UniProt Q13177); conditions: Compound concentration 1000.0 nM
[13] = tested on: Mast/stem cell growth factor receptor Kit (Homo sapiens), P10721 [D816V]; conditions: Compound concentration 1000.0 nM
[14] = target: Serine/threonine-protein kinase SBK1 (Homo sapiens) (UniProt Q52WX2); conditions: Compound concentration 1000.0 nM
[15] = target: Casein kinase I isoform delta (Homo sapiens) (UniProt P48730); conditions: Compound concentration 1000.0 nM
[16] = target: Serine/threonine-protein kinase 36 (Homo sapiens) (UniProt Q9NRP7); conditions: Compound concentration 1000.0 nM
[17] = target: Ribosomal protein S6 kinase alpha-1 (Homo sapiens) (UniProt Q15418); conditions: Compound concentration 1000.0 nM
[18] = target: Proto-oncogene tyrosine-protein kinase Src (Homo sapiens) (UniProt P12931); conditions: Compound concentration 1000.0 nM
[19] = target: Beta-2 adrenergic receptor (Homo sapiens) (UniProt P07550); assay: Beta2 (h) Eurofins-Cerep binding assay; parameters: ligand concentration 0.3 nM; conditions: filed as antagonist, Compound concentration 10.0 uM
[20] = target: Histamine H2 receptor (Homo sapiens) (UniProt P25021); conditions: Compound concentration 10.0 uM
[21] = target: Fibroblast growth factor receptor 2 (Homo sapiens) (UniProt P21802); conditions: Compound concentration 1000.0 nM
[22] = tested on: Phosphatidylinositol 4,5-bisphosphate 3-kinase catalytic subunit alpha isoform (Homo sapiens), P42336 [I800L]; conditions: Compound concentration 1000.0 nM
[23] = tested on: Epidermal growth factor receptor (Homo sapiens), P00533 [L858R]; conditions: Compound concentration 1000.0 nM
[24] = target: Angiopoietin-1 receptor (Homo sapiens) (UniProt Q02763); conditions: Compound concentration 1000.0 nM
[25] = target: Mitogen-activated protein kinase kinase kinase kinase 5 (Homo sapiens) (UniProt Q9Y4K4); conditions: Compound concentration 1000.0 nM
[26] = target: Cyclin-dependent kinase 5 (Homo sapiens) (UniProt Q00535); conditions: Compound concentration 1000.0 nM
[27] = target: Activated CDC42 kinase 1 (Homo sapiens) (UniProt Q07912); conditions: Compound concentration 1000.0 nM
[28] = target: Serine/threonine-protein kinase Nek7 (Homo sapiens) (UniProt Q8TDX7); conditions: Compound concentration 1000.0 nM
[29] = target: Serine/threonine-protein kinase RIO1 (Homo sapiens) (UniProt Q9BRS2); conditions: Compound concentration 1000.0 nM
[30] = tested on: Receptor-type tyrosine-protein kinase FLT3 (Homo sapiens), P36888 [N841I]; conditions: Compound concentration 1000.0 nM
[31] = target: Serine/threonine-protein kinase SIK2 (Homo sapiens) (UniProt Q9H0K1); conditions: Compound concentration 1000.0 nM
[32] = target: Tyrosine-protein kinase Fgr (Homo sapiens) (UniProt P09769); conditions: Compound concentration 1000.0 nM
[33] = target: Fibroblast growth factor receptor 1 (Homo sapiens) (UniProt P11362); conditions: Compound concentration 1000.0 nM
[34] = target: Dual specificity mitogen-activated protein kinase kinase 7 (Homo sapiens) (UniProt O14733); conditions: Compound concentration 1000.0 nM
[35] = target: Casein kinase II subunit alpha (Homo sapiens) (UniProt P68400); conditions: Compound concentration 1000.0 nM
[36] = target: Mitogen-activated protein kinase kinase kinase 4 (Homo sapiens) (UniProt Q9Y6R4); conditions: Compound concentration 1000.0 nM
[37] = target: cGMP-dependent protein kinase 2 (Homo sapiens) (UniProt Q13237); conditions: Compound concentration 1000.0 nM
[38] = target: Calcium/calmodulin-dependent protein kinase type II subunit beta (Homo sapiens) (UniProt Q13554); conditions: Compound concentration 1000.0 nM
[39] = target: G protein-coupled receptor kinase 4 (Homo sapiens) (UniProt P32298); conditions: Compound concentration 1000.0 nM
[40] = target: Receptor tyrosine-protein kinase erbB-4 (Homo sapiens) (UniProt Q15303); conditions: Compound concentration 1000.0 nM
[41] = tested on: Receptor-type tyrosine-protein kinase FLT3 (Homo sapiens), P36888 [UNDEFINED MUTATION]; conditions: Compound concentration 1000.0 nM
[42] = target: Vascular endothelial growth factor receptor 2 (Homo sapiens) (UniProt P35968); conditions: Compound concentration 1000.0 nM
Vascular endothelial growth factor receptor 2 (Homo sapiens), sequence (P35968 whole entry): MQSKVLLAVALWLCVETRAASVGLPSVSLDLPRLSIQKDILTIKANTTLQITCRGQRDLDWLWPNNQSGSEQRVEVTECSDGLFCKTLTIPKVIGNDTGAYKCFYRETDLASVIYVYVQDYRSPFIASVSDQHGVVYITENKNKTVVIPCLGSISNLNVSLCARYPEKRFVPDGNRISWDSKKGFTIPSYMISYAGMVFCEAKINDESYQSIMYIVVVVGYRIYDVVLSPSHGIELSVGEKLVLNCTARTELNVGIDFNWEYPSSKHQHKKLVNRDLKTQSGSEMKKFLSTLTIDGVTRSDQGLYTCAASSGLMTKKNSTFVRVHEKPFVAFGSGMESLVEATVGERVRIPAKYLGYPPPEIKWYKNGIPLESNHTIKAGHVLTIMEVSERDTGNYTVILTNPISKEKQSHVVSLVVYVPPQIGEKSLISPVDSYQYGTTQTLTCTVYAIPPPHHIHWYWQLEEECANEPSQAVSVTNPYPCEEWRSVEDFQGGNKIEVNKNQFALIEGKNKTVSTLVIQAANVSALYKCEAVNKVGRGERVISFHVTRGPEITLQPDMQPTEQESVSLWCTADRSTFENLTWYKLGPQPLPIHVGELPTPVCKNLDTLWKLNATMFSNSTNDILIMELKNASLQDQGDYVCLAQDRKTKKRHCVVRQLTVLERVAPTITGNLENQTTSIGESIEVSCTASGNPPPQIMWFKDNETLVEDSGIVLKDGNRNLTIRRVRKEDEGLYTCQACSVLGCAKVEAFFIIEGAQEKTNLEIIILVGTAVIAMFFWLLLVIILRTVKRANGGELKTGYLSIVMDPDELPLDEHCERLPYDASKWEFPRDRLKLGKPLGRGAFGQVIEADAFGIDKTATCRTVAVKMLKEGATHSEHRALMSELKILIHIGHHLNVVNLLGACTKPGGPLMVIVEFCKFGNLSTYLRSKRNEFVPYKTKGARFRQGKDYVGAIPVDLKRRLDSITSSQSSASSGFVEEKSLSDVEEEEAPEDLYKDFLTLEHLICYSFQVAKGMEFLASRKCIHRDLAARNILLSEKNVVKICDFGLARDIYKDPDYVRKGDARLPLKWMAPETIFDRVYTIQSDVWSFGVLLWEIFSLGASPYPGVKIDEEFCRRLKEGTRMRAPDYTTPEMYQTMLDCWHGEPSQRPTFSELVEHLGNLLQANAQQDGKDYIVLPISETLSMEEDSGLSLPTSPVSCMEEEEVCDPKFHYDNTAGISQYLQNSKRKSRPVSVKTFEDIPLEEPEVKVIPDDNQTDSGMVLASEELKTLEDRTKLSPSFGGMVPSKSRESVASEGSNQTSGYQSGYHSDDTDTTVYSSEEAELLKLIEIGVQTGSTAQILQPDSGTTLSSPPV

Serine/threonine-protein kinase SBK1 (Homo sapiens), sequence (Q52WX2 whole entry, canonical isoform): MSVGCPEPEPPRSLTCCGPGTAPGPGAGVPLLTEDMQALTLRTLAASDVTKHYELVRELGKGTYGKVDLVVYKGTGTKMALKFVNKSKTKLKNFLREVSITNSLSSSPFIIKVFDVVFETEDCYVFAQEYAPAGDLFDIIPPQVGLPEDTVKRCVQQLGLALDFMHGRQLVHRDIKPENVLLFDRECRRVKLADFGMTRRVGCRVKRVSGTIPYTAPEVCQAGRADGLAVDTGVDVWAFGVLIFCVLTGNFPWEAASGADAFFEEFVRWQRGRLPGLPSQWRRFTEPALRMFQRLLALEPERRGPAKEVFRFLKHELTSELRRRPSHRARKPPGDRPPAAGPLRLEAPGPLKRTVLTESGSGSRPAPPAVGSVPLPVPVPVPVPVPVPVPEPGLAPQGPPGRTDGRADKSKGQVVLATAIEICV
Serine/threonine-protein kinase 36 (Homo sapiens), sequence (Q9NRP7 whole entry): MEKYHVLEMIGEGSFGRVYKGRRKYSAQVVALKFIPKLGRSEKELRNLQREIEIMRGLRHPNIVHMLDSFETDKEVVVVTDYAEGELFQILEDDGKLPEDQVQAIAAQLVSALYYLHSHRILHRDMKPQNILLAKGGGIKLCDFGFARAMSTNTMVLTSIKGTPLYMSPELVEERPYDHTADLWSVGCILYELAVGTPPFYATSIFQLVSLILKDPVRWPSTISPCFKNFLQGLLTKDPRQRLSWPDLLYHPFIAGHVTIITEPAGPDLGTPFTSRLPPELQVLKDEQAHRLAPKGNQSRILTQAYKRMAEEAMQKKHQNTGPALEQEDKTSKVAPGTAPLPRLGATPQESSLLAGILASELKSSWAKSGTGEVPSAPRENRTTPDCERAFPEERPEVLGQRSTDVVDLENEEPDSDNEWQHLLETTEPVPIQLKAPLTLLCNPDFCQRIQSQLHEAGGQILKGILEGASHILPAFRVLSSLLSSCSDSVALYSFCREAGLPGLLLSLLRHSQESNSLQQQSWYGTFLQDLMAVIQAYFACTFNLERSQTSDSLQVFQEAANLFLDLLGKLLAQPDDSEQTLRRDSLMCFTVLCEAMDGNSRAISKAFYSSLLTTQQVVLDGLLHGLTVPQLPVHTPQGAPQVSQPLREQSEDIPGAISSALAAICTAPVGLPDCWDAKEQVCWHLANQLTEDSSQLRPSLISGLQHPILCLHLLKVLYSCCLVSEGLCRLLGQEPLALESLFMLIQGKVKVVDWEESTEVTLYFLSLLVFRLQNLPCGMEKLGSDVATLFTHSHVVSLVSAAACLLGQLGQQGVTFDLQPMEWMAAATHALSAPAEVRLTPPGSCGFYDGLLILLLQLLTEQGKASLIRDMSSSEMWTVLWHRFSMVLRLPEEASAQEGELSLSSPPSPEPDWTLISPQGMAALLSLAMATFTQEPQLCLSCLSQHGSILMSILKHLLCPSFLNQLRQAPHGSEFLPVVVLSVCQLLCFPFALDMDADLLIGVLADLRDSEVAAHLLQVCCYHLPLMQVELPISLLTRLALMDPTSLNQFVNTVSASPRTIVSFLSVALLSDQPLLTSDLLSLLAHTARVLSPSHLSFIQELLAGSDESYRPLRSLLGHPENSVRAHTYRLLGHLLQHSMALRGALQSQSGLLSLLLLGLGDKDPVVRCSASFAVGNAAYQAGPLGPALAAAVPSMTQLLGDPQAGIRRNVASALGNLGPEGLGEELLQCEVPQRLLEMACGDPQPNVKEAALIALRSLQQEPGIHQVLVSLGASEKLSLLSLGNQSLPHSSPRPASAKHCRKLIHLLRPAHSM
Serine/threonine-protein kinase PAK 2 (Homo sapiens), sequence (Q13177 whole entry): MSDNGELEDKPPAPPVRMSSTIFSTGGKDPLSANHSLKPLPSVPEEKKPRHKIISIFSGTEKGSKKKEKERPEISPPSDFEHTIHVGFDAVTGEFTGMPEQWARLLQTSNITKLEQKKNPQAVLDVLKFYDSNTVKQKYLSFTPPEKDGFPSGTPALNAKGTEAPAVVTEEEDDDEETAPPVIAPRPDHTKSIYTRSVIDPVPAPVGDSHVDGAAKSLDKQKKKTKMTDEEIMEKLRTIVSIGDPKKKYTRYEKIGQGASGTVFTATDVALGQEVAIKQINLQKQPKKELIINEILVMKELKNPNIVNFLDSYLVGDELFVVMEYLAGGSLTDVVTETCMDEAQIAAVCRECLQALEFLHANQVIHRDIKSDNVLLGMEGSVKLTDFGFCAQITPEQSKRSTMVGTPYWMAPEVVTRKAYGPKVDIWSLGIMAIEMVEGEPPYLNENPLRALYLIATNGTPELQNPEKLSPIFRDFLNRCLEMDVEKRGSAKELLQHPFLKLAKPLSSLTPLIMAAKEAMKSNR
Histamine H2 receptor (Homo sapiens), sequence (P25021 whole entry): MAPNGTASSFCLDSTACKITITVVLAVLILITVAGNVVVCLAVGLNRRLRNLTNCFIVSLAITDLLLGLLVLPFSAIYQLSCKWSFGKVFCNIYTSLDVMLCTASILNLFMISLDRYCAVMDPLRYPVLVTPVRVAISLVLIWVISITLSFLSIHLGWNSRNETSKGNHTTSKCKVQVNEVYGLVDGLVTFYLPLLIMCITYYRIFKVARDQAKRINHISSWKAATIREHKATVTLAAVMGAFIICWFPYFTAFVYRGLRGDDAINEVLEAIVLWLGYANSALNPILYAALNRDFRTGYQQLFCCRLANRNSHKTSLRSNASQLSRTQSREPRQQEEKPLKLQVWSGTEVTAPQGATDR
Dual specificity mitogen-activated protein kinase kinase 7 (Homo sapiens), sequence (O14733 whole entry): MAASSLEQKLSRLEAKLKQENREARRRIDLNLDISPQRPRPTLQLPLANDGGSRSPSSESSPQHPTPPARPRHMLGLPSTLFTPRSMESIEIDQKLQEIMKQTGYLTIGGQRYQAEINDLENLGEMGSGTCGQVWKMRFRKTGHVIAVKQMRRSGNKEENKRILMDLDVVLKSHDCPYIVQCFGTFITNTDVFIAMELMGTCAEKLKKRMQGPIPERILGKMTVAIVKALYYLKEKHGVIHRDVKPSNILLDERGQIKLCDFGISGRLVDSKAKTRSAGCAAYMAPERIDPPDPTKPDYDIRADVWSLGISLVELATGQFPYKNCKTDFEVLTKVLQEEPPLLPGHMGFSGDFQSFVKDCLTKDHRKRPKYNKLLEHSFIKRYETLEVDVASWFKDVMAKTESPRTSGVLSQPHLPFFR
Casein kinase I isoform delta (Homo sapiens), sequence (P48730 whole entry, looked up, canonical isoform): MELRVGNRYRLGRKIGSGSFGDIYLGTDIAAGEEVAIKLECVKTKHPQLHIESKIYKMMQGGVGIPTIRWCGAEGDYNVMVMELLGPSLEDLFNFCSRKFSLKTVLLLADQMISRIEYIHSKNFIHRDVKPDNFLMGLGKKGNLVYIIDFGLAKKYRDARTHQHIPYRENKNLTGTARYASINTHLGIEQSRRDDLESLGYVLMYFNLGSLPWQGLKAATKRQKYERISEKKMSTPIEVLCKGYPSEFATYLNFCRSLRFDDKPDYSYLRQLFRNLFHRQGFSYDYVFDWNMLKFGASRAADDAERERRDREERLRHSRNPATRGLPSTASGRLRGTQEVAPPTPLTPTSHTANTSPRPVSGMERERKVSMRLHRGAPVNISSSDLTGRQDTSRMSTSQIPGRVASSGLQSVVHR
Sigma intracellular receptor 2, sequence (Q5BJF2 whole entry): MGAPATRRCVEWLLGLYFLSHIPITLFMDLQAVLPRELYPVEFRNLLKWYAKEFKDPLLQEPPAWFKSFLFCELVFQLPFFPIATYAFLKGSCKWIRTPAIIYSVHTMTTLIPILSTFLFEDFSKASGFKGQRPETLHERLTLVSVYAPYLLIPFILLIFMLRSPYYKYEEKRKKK

## COc1ccc2c(c1)O[C@@H](c1ccc(OC)c(OC)c1)C[C@H]2NC(=O)C1(c2ccc3c(c2)OC(F)(F)O3)CC1 [A-1596586]
[1]
  residual activity: 79%
[2]
  inhibition at 90 min, 10 µM: 34.6%
[3]
  residual activity: 97%
[4]
  residual activity: 86%
[5]
  Ki: 1190 nM
[6]
  % Inhibition of Control Specific Binding (Mean n=2): 42.2%
[7]
  residual activity: 100%
[8]
  residual activity: 100%
[9]
  residual activity: 91%
[10]
  % Inhibition of Control Specific Binding (Mean n=2): -3.3%
[11]
  residual activity: 100%
[12]
  residual activity: 100%
[13]
  residual activity: 92%
[14]
  residual activity: 94%
[15]
  residual activity: 100%
[16]
  residual activity: 100%
[17]
  residual activity: 98%
[18]
  residual activity: 100%
[19]
  % Inhibition of Control Specific Binding (Mean n=2): 7%
[20]
  inhibition: -6.08%
[21]
  residual activity: 93%
[22]
  residual activity: 79%
[23]
  residual activity: 97%
[24]
  residual activity: 92%
[25]
  residual activity: 100%
[26]
  residual activity: 100%
[27]
  residual activity: 100%
[28]
  residual activity: 100%
[29]
  residual activity: 100%
[30]
  residual activity: 100%
[31]
  residual activity: 95%
[32]
  residual activity: 94%
[33]
  residual activity: 90%
[34]
  residual activity: 88%
[35]
  residual activity: 94%
[36]
  residual activity: 95%
[37]
  residual activity: 96%
[38]
  residual activity: 69%
[39]
  residual activity: 92%
[40]
  residual activity: 90%
[41]
  residual activity: 65%
[42]
  residual activity: 80%

## COc1ccc2c(c1)O[C@H](c1ccc(OC)c(OC)c1)C[C@@H]2NC(=O)C1(c2ccc3c(c2)OC(F)(F)O3)CC1 [A-1596584]
[1]
  residual activity: 95%
[2]
  inhibition at 90 min, 10 µM: 2.6%
[3]
  residual activity: 100%
[4]
  residual activity: 91%
[5]
  Ki: 584 nM
[6]
  % Inhibition of Control Specific Binding (Mean n=2): 44.7%
[7]
  residual activity: 100%
[8]
  residual activity: 100%
[9]
  residual activity: 100%
[10]
  % Inhibition of Control Specific Binding (Mean n=2): -12.8%
[11]
  residual activity: 91%
[12]
  residual activity: 100%
[13]
  residual activity: 99%
[14]
  residual activity: 90%
[15]
  residual activity: 92%
[16]
  residual activity: 94%
[17]
  residual activity: 100%
[18]
  residual activity: 100%
[19]
  % Inhibition of Control Specific Binding (Mean n=2): 11.6%
[20]
  inhibition: -0.89%
[21]
  residual activity: 92%
[22]
  residual activity: 97%
[23]
  residual activity: 100%
[24]
  residual activity: 70%
[25]
  residual activity: 100%
[26]
  residual activity: 100%
[27]
  residual activity: 99%
[28]
  residual activity: 100%
[29]
  residual activity: 100%
[30]
  residual activity: 100%
[31]
  residual activity: 100%
[32]
  residual activity: 87%
[33]
  residual activity: 87%
[34]
  residual activity: 100%
[35]
  residual activity: 100%
[36]
  residual activity: 98%
[37]
  residual activity: 89%
[38]
  residual activity: 88%
[39]
  residual activity: 100%
[40]
  residual activity: 94%
[41]
  residual activity: 72%
[42]
  residual activity: 88%

From ChEMBL document CHEMBL4507262, “Data for DCP probe A-1596586” (2021)
